Test results published in ChEMBL document CHEMBL1201862, “PubChem BioAssay data set” (2004).
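Results reflect a 48-hour exposure of cells in 96-well plates to compound at five concentrations. GI50 marks 50% less growth.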 Calls of active or inactive are those of the source. Cut-off read from the data, not from the text of the source: active = GI50 up to about 1.1 µM and inactive = higher.

What was measured:
Assay in all cases: inhibition of tumour cell growth, NCI panel, 48 h
[1] = test system: A498
[2] = test system: A549
[3] = test system: CAKI-1
[4] = test system: CCRF-CEM
[5] = test system: COLO 205
[6] = test system: EKVX
[7] = test system: HCC 2998
[8] = test system: IGROV-1
[9] = test system: LXFL 529
[10] = test system: Malme-3M
[11] = test system: NCI-H226
[12] = test system: OVCAR-3
[13] = test system: OVCAR-5
[14] = test system: RPMI-8226
[15] = test system: SNB-19
[16] = test system: RXF 393

| Structure (SMILES) | GI50 [1] | GI50 [2] | GI50 [3] | GI50 [4] | GI50 [5] | GI50 [6] | GI50 [7] | GI50 [8] | GI50 [9] | GI50 [10] | GI50 [11] | GI50 [12] | GI50 [13] | GI50 [14] | GI50 [15] | GI50 [16] |
| --- | --- | --- | --- | --- | --- | --- | --- | --- | --- | --- | --- | --- | --- | --- | --- | --- |
| CN(C(=O)C12C3C4C5C3C1(C(=O)O)C5C42)C(C)(C)C (stereo not given) | > 100 µM (inactive) | 42.2 µM (inactive) | > 100 µM (inactive) | 76.6 µM (inactive) | 28 µM (inactive) | > 100 µM (inactive) | > 100 µM (inactive) | > 100 µM (inactive) | 74.8 µM (inactive) | > 100 µM (inactive) | > 100 µM (inactive) | > 100 µM (inactive) | > 100 µM (inactive) | 52 µM (inactive) | > 100 µM (inactive) | – |
| O=c1c(-c2ccccc2)c2oc(c1-c1ccccc1)CSCc1cccc(c1)CSC2 | 21.8 µM (inactive) | 38.5 µM (inactive) | 34.2 µM (inactive) | 80 µM (inactive) | 49.1 µM (inactive) | 42.1 µM (inactive) | 94.6 µM (inactive) | 26.3 µM (inactive) | 39 µM (inactive) | 45.5 µM (inactive) | 56.4 µM (inactive) | 27.8 µM (inactive) | > 100 µM (inactive) | 27.9 µM (inactive) | 33 µM (inactive) | 14.5 µM (inactive) |
| C[n+]1c2ccccc2c(CNCC(=O)O)c2ccccc21 | 2.61 µM (inactive) | 3.76 µM (inactive) | 0.406 µM (active) | – | 0.418 µM (active) | 2.56 µM (inactive) | 5.92 µM (inactive) | 5.96 µM (inactive) | 1.07 µM (active) | 11.9 µM (inactive) | 3.3 µM (inactive) | 1.87 µM (inactive) | 15.2 µM (inactive) | 0.29 µM (active) | 10.2 µM (inactive) | 2.38 µM (inactive) |
| Cc1ccc(S(=O)(=O)NC2(C=O)CCC(C(C)(C)C)CC2)cc1 (stereo not given) | 89.9 µM (inactive) | 35.1 µM (inactive) | > 100 µM (inactive) | – | 26.7 µM (inactive) | 38.1 µM (inactive) | 36.9 µM (inactive) | 37.7 µM (inactive) | > 100 µM (inactive) | 35.2 µM (inactive) | > 100 µM (inactive) | 24.5 µM (inactive) | 79.3 µM (inactive) | 19.1 µM (inactive) | 68.7 µM (inactive) | 27.3 µM (inactive) |
| N#CC1=C(c2ccccc2)OC2(N)OC(c3ccccc3)=C(C#N)C12C#N (stereo not given) | > 100 µM (inactive) | > 100 µM (inactive) | 84.1 µM (inactive) | 56.1 µM (inactive) | > 100 µM (inactive) | > 100 µM (inactive) | > 100 µM (inactive) | > 100 µM (inactive) | 74 µM (inactive) | > 100 µM (inactive) | – | 36.9 µM (inactive) | > 100 µM (inactive) | 39.4 µM (inactive) | > 100 µM (inactive) | 69.3 µM (inactive) |
| C[Si](C)(c1ccccc1)C1CC(=O)CC(=O)C1 | – | > 100 µM (inactive) | > 100 µM (inactive) | 38.4 µM (inactive) | > 100 µM (inactive) | > 100 µM (inactive) | > 100 µM (inactive) | 22.7 µM (inactive) | > 100 µM (inactive) | > 100 µM (inactive) | > 100 µM (inactive) | > 100 µM (inactive) | > 100 µM (inactive) | > 100 µM (inactive) | > 100 µM (inactive) | 37.3 µM (inactive) |
| COc1nc2c(c(O)c(C)c(=O)n2OC2OCC(OC(C)=O)C(OC(C)=O)C2OC(C)=O)c(=O)n1C (stereo not given) | – | > 100 µM (inactive) | – | > 100 µM (inactive) | > 100 µM (inactive) | > 100 µM (inactive) | > 100 µM (inactive) | > 100 µM (inactive) | > 100 µM (inactive) | – | > 100 µM (inactive) | – | > 100 µM (inactive) | – | > 100 µM (inactive) | > 100 µM (inactive) |
| C[N+](C)(C)CC(=O)N/N=C(/C=C/c1ccccc1)CC1OC(=O)c2ccccc21 (stereo not given) | > 100 µM (inactive) | > 100 µM (inactive) | > 100 µM (inactive) | > 100 µM (inactive) | > 100 µM (inactive) | > 100 µM (inactive) | > 100 µM (inactive) | > 100 µM (inactive) | > 100 µM (inactive) | > 100 µM (inactive) | > 100 µM (inactive) | – | > 10 µM (inactive) | > 100 µM (inactive) | > 100 µM (inactive) | > 100 µM (inactive) |
| O=C(O)/C(Cl)=C(\Cl)Nc1cccc(C(F)(F)F)c1 | – | > 100 µM (inactive) | > 100 µM (inactive) | > 100 µM (inactive) | > 100 µM (inactive) | > 100 µM (inactive) | > 100 µM (inactive) | > 100 µM (inactive) | > 100 µM (inactive) | > 100 µM (inactive) | – | > 100 µM (inactive) | – | – | – | > 100 µM (inactive) |
| COC(=O)C(C(=O)C(=O)Nc1ccc(C(F)(F)F)cc1[N+](=O)[O-])c1csc(-n2nc(-c3ccccc3)cc2-c2ccccc2)n1 (stereo not given) | > 100 µM (inactive) | > 100 µM (inactive) | > 100 µM (inactive) | > 100 µM (inactive) | > 100 µM (inactive) | – | > 100 µM (inactive) | > 100 µM (inactive) | > 100 µM (inactive) | > 100 µM (inactive) | > 100 µM (inactive) | > 100 µM (inactive) | > 100 µM (inactive) | > 100 µM (inactive) | > 100 µM (inactive) | > 100 µM (inactive) |
| C[C@@H]1OC(=O)N2CCCC(=C3SCCCS3)C12 (stereo not given in full) | > 100 µM (inactive) | 78.5 µM (inactive) | – | 46.6 µM (inactive) | > 100 µM (inactive) | > 100 µM (inactive) | – | 90.8 µM (inactive) | 44.8 µM (inactive) | > 100 µM (inactive) | 44.9 µM (inactive) | > 100 µM (inactive) | > 100 µM (inactive) | 36.9 µM (inactive) | > 100 µM (inactive) | 68.4 µM (inactive) |
| Nc1nc2c(ncn2CCCC(c2ccccc2)P(=O)(O)O)c(=O)[nH]1 (stereo not given) | – | > 100 µM (inactive) | > 100 µM (inactive) | > 100 µM (inactive) | > 100 µM (inactive) | > 100 µM (inactive) | > 100 µM (inactive) | > 100 µM (inactive) | > 100 µM (inactive) | > 100 µM (inactive) | – | > 100 µM (inactive) | > 100 µM (inactive) | > 100 µM (inactive) | > 100 µM (inactive) | – |
| O=C1C(N2C(=O)c3ccccc3C2=O)CN1C(COCc1ccccc1)c1ccc(OCc2ccccc2)cc1 (stereo not given) | > 100 µM (inactive) | > 100 µM (inactive) | > 100 µM (inactive) | > 100 µM (inactive) | > 100 µM (inactive) | > 100 µM (inactive) | > 100 µM (inactive) | > 100 µM (inactive) | > 100 µM (inactive) | > 100 µM (inactive) | > 100 µM (inactive) | > 100 µM (inactive) | > 100 µM (inactive) | > 100 µM (inactive) | > 100 µM (inactive) | > 100 µM (inactive) |
| COc1ccc(-c2nc3c(nc2-c2ccc(OC)cc2)N(C)S(=O)(=O)N=C3N)cc1 | 22.5 µM (inactive) | 27 µM (inactive) | 23.2 µM (inactive) | 23.1 µM (inactive) | 14.7 µM (inactive) | – | 35.6 µM (inactive) | 28.1 µM (inactive) | 27.3 µM (inactive) | 22.7 µM (inactive) | – | 14 µM (inactive) | 25.2 µM (inactive) | 10.6 µM (inactive) | 28.1 µM (inactive) | 10.9 µM (inactive) |
